How the values were obtained:
Assay type in all cases: physicochemical
[1] = Chemical stability in aqueous state, 25° C., 4 weeks in complete darkness, HPLC; details: distilled water
Experimental: (§1) HPLC Analysis Conditions: • Detector: UV Absorbance (at 237 nm) • Column: Octadesyl silica gel C18 (4.6 mm×150 mm, 5 μm) • Mobile Phase: Potassium dihydrogenphosphate monobasic (0.03M): methanol=4:6 (v/v) • Flow Rate: 1.5 ml/min
The resulting aqueous solutions were stored at 25° C. for 4 weeks in complete darkness, after which a measurement was made of the contents of the salts with resort to HPLC under the same conditions as in the solid state.

physchem = details: 37 °C
[2] = Chemical stability in solid state, accelerated test at 60° C., HPLC content
Experimental: as §1

[3] = Test for hygroscopicity: water content (K. F. water %) at 25° C. under various humidity conditions; details: for water content (K. F. water %): 25° C.

CCOC(=O)C1=C(COCCN)NC(C)=C(C(=O)OC)C1c1ccccc1Cl.CCS(=O)(=O)O (stereo not drawn) [Ethanesulfonate, amlodipine ethanesulfonate]
stability in aqueous state (decomposition products, content change) [1]: neither decomposition products nor content change is found
solubility (physchem; pH 2, aqueous buffer): > 200 mg/mL
solubility (physchem; pH 4, aqueous buffer): > 200 mg/mL
solubility (physchem; pH 6, aqueous buffer): > 200 mg/mL
solubility (physchem; pH 7, aqueous buffer): > 200 mg/mL
solubility (physchem; pH 7.4, aqueous buffer): > 200 mg/mL
solubility (physchem; pH 8, aqueous buffer): > 200 mg/mL
solubility (physchem; water): > 200 mg/mL
change in content, accelerated test [2]: virtually no changes
HPLC content ([2]; 1 week): 99.6%
HPLC content ([2]; 2 weeks): 99.6%
HPLC content ([2]; 3 weeks): 99.5%
HPLC content ([2]; initial): 99.7%
water content (K. F. water %) ([3]; 25% RH, 1 week storage): 0.08%
water content (K. F. water %) ([3]; 60% RH, 1 week storage): 0.09%
water content (K. F. water %) ([3]; 75% RH, 1 week storage): 0.13%
water content (K. F. water %) ([3]; 95% RH, 1 week storage): 0.15%
water content (K. F. water %) ([3]; Initial): 0.12%
hygroscopicity ([3]; relative humidity 95%): ≤ 0.5%

CCOC(=O)C1=C(COCCN)NC(C)=C(C(=O)OC)C1c1ccccc1Cl (stereo not drawn) [Besylate, amlodipine besylate, reference compound]
stability in aqueous state (decomposition products, content change) [1]: neither decomposition products nor content change is found
change in content, accelerated test [2]: virtually no changes
HPLC content ([2]; 1 week): 99.6%
HPLC content ([2]; 2 weeks): 99.4%
HPLC content ([2]; 3 weeks): 99.2%
HPLC content ([2]; initial): 99.6%
water content (K. F. water %) ([3]; 25% RH, 1 week storage): 0.10%
water content (K. F. water %) ([3]; 60% RH, 1 week storage): 0.09%
water content (K. F. water %) ([3]; 75% RH, 1 week storage): 0.15%
water content (K. F. water %) ([3]; 95% RH, 1 week storage): 0.17%
water content (K. F. water %) ([3]; Initial): 0.14%

Reference: patent US6903124B2, “Organic acid salt of amlodipine” (CJ Corp, priority 2002, dated 2005)
